# Tests used:
# Akt1 = molecular target: T1, Akt1 (Homo sapiens, UniProt P31749); experiment: Akt activation assay (PDK1-mediated activation, LANCE Ultra crosstide TR-FRET), Akt1; type: biochemical; conditions: read-out: Biological Assay 1 IC50 (nM) Akt1
# T1 construct: unspecified tag, removed (detagged) (cleaved yes); purchased SignalChem and Proteros (Akt1); Merck Millipore (PDK1) 14-452 (PDK1); none given for Akt1
# Method in brief: (§1)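 Two-step cascade format: Akt1, Akt2 or Akt3 phosphorylates Ulight-crosstide (100 nM) only after activation by 5 nM PDK1 in presence of PtdIns(3,4,5)P3 vesicles and 100 μM ATP. Product quantified by Eu-antibody TR-FRET after 30 min reaction.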
# Akt3 = molecular target: T2, Akt3 (Homo sapiens, UniProt Q9Y243); experiment: Akt activation assay (PDK1-mediated activation, LANCE Ultra crosstide TR-FRET), Akt3; type: biochemical; conditions: read-out: Biological Assay 1 IC50 (nM) Akt3
# T2 construct: unspecified tag, removed (detagged) (cleaved yes); purchased SignalChem and Proteros (Akt3); Merck Millipore (PDK1) 14-452 (PDK1); none given for Akt3
# T2 sequence (Q9Y243 whole entry): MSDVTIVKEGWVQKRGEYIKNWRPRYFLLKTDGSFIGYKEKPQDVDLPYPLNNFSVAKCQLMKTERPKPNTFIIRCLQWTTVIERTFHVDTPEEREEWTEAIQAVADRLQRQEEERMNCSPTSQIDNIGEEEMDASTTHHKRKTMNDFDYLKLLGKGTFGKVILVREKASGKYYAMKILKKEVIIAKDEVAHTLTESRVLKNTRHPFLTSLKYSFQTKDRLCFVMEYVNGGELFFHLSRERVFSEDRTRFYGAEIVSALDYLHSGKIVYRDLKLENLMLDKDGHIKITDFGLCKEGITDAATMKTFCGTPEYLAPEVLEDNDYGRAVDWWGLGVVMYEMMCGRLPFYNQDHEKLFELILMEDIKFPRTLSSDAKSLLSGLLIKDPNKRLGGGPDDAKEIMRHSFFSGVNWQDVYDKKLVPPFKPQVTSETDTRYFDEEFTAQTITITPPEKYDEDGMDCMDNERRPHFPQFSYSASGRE
# Method in brief: as §1
# p-Akt3 in WM115 cells = molecular target: T3, p-Akt3 in WM115 cells (Homo sapiens, UniProt Q9Y243); experiment: Phospho-Akt cellular SureFire assay, p-Akt3 in WM115 cells; type: cell-based; conditions: insulin stimulated, read-out: Biological Assay 2 IC50 (nM) Akt3 WM115
# T3 construct: SureFire assays to detect cellular p-Akt1, p-Akt2 and p-Akt3 levels in WM115 cells (Akt2/3) and LNCaP cells (Akt1); endogenous in cells; host or cells: WM115 (ECACC 91061232), insulin-stimulated
# T3 sequence (Q9Y243 whole entry): as above
# Description: (§2) Biological Assay 2: Phospho-Akt (p-Akt) Cellular SureFire Assays
# (§3) The following describes SureFire assays to detect cellular p-Akt1, p-Akt2 and p-Akt3 levels in WM115 cells (Akt2/3) and LNCaP cells (Akt1). In the case of Akt2 and Akt3, Streptavidin-coated donor beads capture a biotinylated anti-mouse antibody that in turn recognises a mouse total Akt antibody which is specific to each isoform. The protein A-conjugated acceptor beads capture an antibody that recognises the phosphoprotein. Similarly in the Akt1 kit, the donor and acceptor beads are used to capture each antibody pair consisting of an antibody that specifically recognises Akt1 as well as an antibody that recognises the phosphoprotein. In each case, close proximity of the beads allows energy transfer from donor to acceptor.
# (§4) Custom kit from TGR/Perkin Elmer for Akt2/3 containing anti-(pThr308)Akt antibody and biotinylated anti-mouse capture antibody.
# Total Akt3 antibody (R&D Systems MAB 1463)
# (§5) WM115 cells (ECACC, 91061232) cultured in MEM culture media (M2279) supplemented with 2 mM L-glutamine (G7513), 1% non-essential amino acids (M7145), 1% sodium pyruvate (S8636) and 10% FBS (F0804)
# (§6) Cell treatment: 1×10^5 WM115 cells or 5×10^4 LNCaP cells were seeded into each well of a 96 well poly-D-Lysine coated tissue culture plate and incubated overnight at 37° C.+5% CO2. Media was removed from cells and replaced with assay buffer consisting of the full culture media described above but with 0.1% FBS instead of 10% FBS. Only WM115 cells were stimulated at 37° C.+5% CO2 for 10 min with 5 μL insulin at a final concentration of 100 nM. Cells were incubated with 5 μL of test compound at a final DMSO concentration of 0.3% for 15 min at 37° C.+5% CO2. Cell lysis was carried out according to kit instructions.
# (§7) Assay format (performed in subdued lighting): 4 μL cell lysate and 5 μL reaction buffer were incubated together in the dark at room temperature for 2 h. Reaction buffer was supplemented with a 1/5 dilution of activation buffer, a 1/50 dilution of acceptor beads and in the case of the custom kits, antibodies were added at dilutions of 1/20,000 for Akt2 and 1/2,000 for Akt3.
# (§8) 2 μL dilution buffer, supplemented with a 1/20 dilution of donor beads was added to each well and incubated for a further 2 h. Plates were read with the EnVision® Multilabel Plate Reader and using the AlphaScreen settings. Compound IC50 was determined using a 4-parameter equation.
# Akt2 = molecular target: T4, Akt2 (Homo sapiens, UniProt P31751); experiment: Akt activation assay (PDK1-mediated activation, LANCE Ultra crosstide TR-FRET), Akt2; type: biochemical; conditions: read-out: Biological Assay 1 IC50 (nM) Akt2
# T4 construct: unspecified tag, removed (detagged) (cleaved yes); purchased SignalChem and Proteros (Akt2); Merck Millipore (PDK1) 14-452 (PDK1); none given for Akt2
# T4 sequence (P31751 whole entry): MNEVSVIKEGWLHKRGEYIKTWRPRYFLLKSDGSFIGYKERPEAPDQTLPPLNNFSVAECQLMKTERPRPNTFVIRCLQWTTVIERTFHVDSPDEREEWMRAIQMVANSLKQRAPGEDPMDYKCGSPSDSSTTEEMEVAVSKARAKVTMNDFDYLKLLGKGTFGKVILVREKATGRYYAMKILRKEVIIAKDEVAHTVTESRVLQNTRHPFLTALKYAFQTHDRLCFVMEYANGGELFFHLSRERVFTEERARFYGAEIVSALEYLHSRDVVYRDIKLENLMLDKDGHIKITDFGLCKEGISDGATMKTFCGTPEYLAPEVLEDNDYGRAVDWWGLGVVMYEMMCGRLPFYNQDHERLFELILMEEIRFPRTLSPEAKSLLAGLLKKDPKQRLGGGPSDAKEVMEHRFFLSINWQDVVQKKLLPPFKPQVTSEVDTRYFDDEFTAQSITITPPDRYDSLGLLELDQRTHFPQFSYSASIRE
# Method in brief: as §1
# p-Akt1 in LNCaP cells = molecular target: T5, p-Akt1 in LNCaP cells (Homo sapiens, UniProt P31749); experiment: Phospho-Akt cellular SureFire assay, p-Akt1 in LNCaP cells; type: cell-based; conditions: read-out: Biological Assay 2 IC50 (nM) Akt1 LNCaP
# T5 construct: SureFire assays to detect cellular p-Akt1, p-Akt2 and p-Akt3 levels in WM115 cells (Akt2/3) and LNCaP cells (Akt1); endogenous in cells; host or cells: LNCaP (ECACC 89110211)
# T5 sequence (P31749 whole entry): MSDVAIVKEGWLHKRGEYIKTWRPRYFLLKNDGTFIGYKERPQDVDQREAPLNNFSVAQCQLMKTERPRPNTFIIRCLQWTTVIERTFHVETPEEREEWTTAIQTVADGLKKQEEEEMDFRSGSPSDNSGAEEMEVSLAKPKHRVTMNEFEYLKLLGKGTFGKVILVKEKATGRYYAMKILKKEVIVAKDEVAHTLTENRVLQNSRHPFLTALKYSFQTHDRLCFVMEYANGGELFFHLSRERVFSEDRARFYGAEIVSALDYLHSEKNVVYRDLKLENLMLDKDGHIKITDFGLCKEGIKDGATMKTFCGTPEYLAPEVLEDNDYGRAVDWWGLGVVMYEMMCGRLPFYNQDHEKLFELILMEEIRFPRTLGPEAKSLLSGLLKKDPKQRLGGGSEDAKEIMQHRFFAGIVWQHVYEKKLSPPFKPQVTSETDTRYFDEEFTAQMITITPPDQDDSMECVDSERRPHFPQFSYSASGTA
# Description: as §2, §3
# AlphaScreen® SureFire™ Phospho-Akt1 (pThr308) Kit from Perkin Elmer (TGRA2S10K)
# LNCaP cells (ECACC, 89110211) cultured in RPMI-1640 culture media (Fisher, 10665193) supplemented with 2 mM L-glutamine, 1% sodium pyruvate and 10% FBS
# as §6, §7, §8
# p-Akt2 in WM115 cells = molecular target: T6, p-Akt2 in WM115 cells (Homo sapiens, UniProt P31751); experiment: Phospho-Akt cellular SureFire assay, p-Akt2 in WM115 cells; type: cell-based; conditions: insulin stimulated, read-out: Biological Assay 2 IC50 (nM) Akt2 WM115
# T6 construct: SureFire assays to detect cellular p-Akt1, p-Akt2 and p-Akt3 levels in WM115 cells (Akt2/3) and LNCaP cells (Akt1); endogenous in cells; host or cells: WM115 (ECACC 91061232), insulin-stimulated
# T6 sequence (P31751 whole entry): as the sequence (P31751 whole entry) above
# Description: as §2, §3, §4
# Total Akt2 antibody (NEB UK, 5239)
# as §5, §6, §7, §8
# T1 sequence (P31749 whole entry): as the sequence (P31749 whole entry) above
IC50 (Akt1),IC50 (Akt3),IC50 (p-Akt3 in WM115 cells),IC50 (Akt2),IC50 (p-Akt1 in LNCaP cells),IC50 (p-Akt2 in WM115 cells),Structure (SMILES)
> 25000 nM,22 nM,240 nM,590 nM,> 30000 nM,,"COC(=O)N(C)[C@H]1CC[C@H](CC(=O)Nc2cc(-c3ccccc3)c(-c3ccc(C4(N)CC4)cc3)nn2)CC1 [Example A77, Methyl (trans-4-(2-((6-(4-(1-aminocyclopropyl)phenyl)-5-phenylpyridazin-3-yl)amino)-2-oxoethyl)cyclohexyl)(methyl)carbamate]"
> 5100 nM,150 nM,100 nM,530 nM,,2600 nM,"NC1(c2ccc(-c3ncc(NC(=O)C[C@H]4CC[C@H](N5CCOC5=O)CC4)cc3-c3ccccc3)cc2)CC(F)(F)C1 [Example A3, N-(6-(4-(1-amino-3,3-difluorocyclobutyl)phenyl)-5-phenylpyridin-3-yl)-2-(trans-4-(2-oxooxazolidin-3-yl)cyclohexyl)acetamide]"
11000 nM,7 nM,43 nM,270 nM,,1300 nM,"CC(=O)N(C)[C@H]1CC[C@H](CC(=O)Nc2cc(-c3ccccc3)c(-c3ccc(C4(N)CCC4)cc3)nn2)CC1 [Example A56, N-(6-(4-(1-aminocyclobutyl)phenyl)-5-phenylpyridazin-3-yl)-2-(trans-4-(N-methylacetamido)cyclohexyl)acetamide]"
,,1700 nM,,> 30000 nM,> 30000 nM,"COC(=O)N(C)[C@H]1CC[C@H](CC(=O)Nc2cc(-c3ccccc3)c(-c3ccc(C(C)(C)N)cc3)cn2)CC1 [Example A48, Methyl (trans-4-(2-((5-(4-(2-aminopropan-2-yl)phenyl)-4-phenylpyridin-2-yl)amino)-2-oxoethyl)cyclohexyl)(methyl)carbamate]"

# Continued, compound first:
Structure (SMILES),IC50 (Akt1),IC50 (Akt3),IC50 (p-Akt3 in WM115 cells),IC50 (Akt2),IC50 (p-Akt1 in LNCaP cells),IC50 (p-Akt2 in WM115 cells)
"COC(=O)N(C)[C@H]1CC[C@H](CC(=O)Nc2cnc(-c3ccc(C4(N)CC4)c(F)c3)c(-c3ccccc3)c2)CC1 [Example 62, Methyl (trans-4-(2-((6-(4-(1-aminocyclopropyl)-3-fluorophenyl)-5-phenylpyridin-3-yl)amino)-2-oxoethyl)cyclohexyl)(methyl)carbamate]",> 30000 nM,170 nM,360 nM,2300 nM,> 30000 nM,
"C[C@]1(O)C[C@@](N)(c2ccc(-c3nnc(NC(=O)C[C@H]4CC[C@H](N5CCOC5=O)CC4)nc3-c3ccccc3F)cc2)C1 [Example 68, N-(6-(4-(trans-1-amino-3-hydroxy-3-methylcyclobutyl)phenyl)-5-(2-fluorophenyl)-1,2,4-triazin-3-yl)-2-(trans-4-(2-oxooxazolidin-3-yl)cyclohexyl)acetamide]",6400 nM,99 nM,410 nM,860 nM,> 30000 nM,
"CCC(=O)N(C)[C@H]1CC[C@H](CC(=O)Nc2cc(-c3ccccc3)c(-c3ccc([C@]4(N)C[C@](C)(O)C4)c(F)c3)cn2)CC1 [Example 112, N-(trans-4-(2-((5-(4-(trans-1-amino-3-hydroxy-3-methylcyclobutyl)-3-fluorophenyl)-4-phenylpyridin-2-yl)amino)-2-oxoethyl)cyclohexyl)-N-methylpropionamide]",> 30000 nM,55 nM,31 nM,1300 nM,,3400 nM
"CC(C)(N)c1ccc(-c2ncc(NC(=O)C[C@H]3CC[C@H](N4CCCCC4=O)CC3)cc2-c2ccccc2)cc1 [Example 28, N-(6-(4-(2-aminopropan-2-yl)phenyl)-5-phenylpyridin-3-yl)-2-(trans-4-(2-oxopiperidin-1-yl)cyclohexyl)acetamide]",> 30000 nM,440 nM,260 nM,7000 nM,> 30000 nM,
"CCC(=O)N(C)[C@H]1CC[C@H](CC(=O)Nc2cc(-c3ccccc3F)c(-c3ccc([C@]4(N)C[C@](C)(O)C4)cc3)cn2)CC1 [Example 95, N-(trans-4-(2-((5-(4-(trans-1-amino-3-hydroxy-3-methylcyclobutyl)phenyl)-4-(2-fluorophenyl)pyridin-2-yl)amino)-2-oxoethyl)cyclohexyl)-N-methylpropionamide]",> 22000 nM,10 nM,17 nM,120 nM,,660 nM
"CCN(C(=O)OC)[C@H]1CC[C@H](CC(=O)Nc2cc(-c3ccccc3)c(-c3ccc([C@]4(N)C[C@](C)(O)C4)cc3)cn2)CC1 [Example 116, Methyl (trans-4-(2-((5-(4-(trans-1-amino-3-hydroxy-3-methylcyclobutyl)phenyl)-4-phenylpyridin-2-yl)amino)-2-oxoethyl)cyclohexyl) (ethyl)carbamate]",> 30000 nM,21 nM,72 nM,220 nM,,1400 nM
"CCC(=O)N(CC)[C@H]1CC[C@H](CC(=O)Nc2cc(-c3ccccc3)c(-c3ccc([C@]4(N)C[C@](C)(O)C4)cc3)cn2)CC1 [Example 115, N-(trans-4-(2-((5-(4-(trans-1-amino-3-hydroxy-3-methylcyclobutyl)phenyl)-4-phenylpyridin-2-yl)amino)-2-oxoethyl)cyclohexyl)-N-ethylpropionamide]",> 30000 nM,24 nM,15 nM,330 nM,,1000 nM
"CC(=O)N(C)[C@H]1CC[C@H](CC(=O)Nc2cc(-c3ccccc3)c(-c3ccc([C@]4(N)C[C@H](F)C4)cc3)nn2)CC1 [Example 46, N-(6-(4-(trans-1-amino-3-fluorocyclobutyl)phenyl)-5-phenylpyridazin-3-yl)-2-(trans-4-(N-methylacetamido)cyclohexyl)acetamide]",11000 nM,100 nM,46 nM,440 nM,,2600 nM
CC(=O)N(C)[C@H]1CC[C@H](CC(=O)Nc2cnc(-c3ccc(C4(N)CC(F)(F)C4)cc3)c(-c3ccccc3)c2)CC1 [Example 5],3900 nM,110 nM,61 nM,800 nM,,3000 nM
"CC(=O)N(C)[C@H]1CC[C@H](CC(=O)Nc2cc(-c3ccccc3)c(-c3ccc([C@]4(N)C[C@](C)(O)C4)c(F)c3)cn2)CC1 [Example 111, N-(5-(4-(trans-1-amino-3-hydroxy-3-methylcyclobutyl)-3-fluorophenyl)-4-phenylpyridin-2-yl)-2-(trans-4-(N-methylacetamido)cyclohexyl)acetamide]",> 27000 nM,68 nM,29 nM,1400 nM,,3200 nM
